Test results: patent US20210187105A1, “COMBINATION THERAPY OF ANTI-MIF ANTIBODIES AND GLUCOCORTICOIDS” (Baxalta Incorporated, priority 2012, published 2021)

Assays:
[1] = test system: immune mediated-nephrotoxic nephritis (NTN) in Wistar Kyoto (WKY) rats; experiment: Animal model for crescentic glomerulonephritis (nephrotoxic nephritis); format: in vivo, rat
Text: This model is recognized in the art as predictable to show the effects of the invention. It is suitable to show the effects of the combination therapy over the complete range of diseases which can be subsumed under the above definition of “MIF related diseases” particularly, this model is suitable for the following diseases: Lupus nephritis, anti-GBM nephritis, ANCA nephritis, IgA nephropathy. Dexamethasone is recognized in the art as predictive for a respective glucocorticoid in the treatment of a human. […] This model has a rapid onset of disease with macrophage infiltration, fibrin deposition and tissue destruction 12. NTN is induced in male WKY rats by single intravenous injection of 0.1 ml rabbit anti-rat glomerular basement membrane serum (day 0). mAb and Dexamethasone is injected intraperitoneally at time points and dosages described below. 24 hour urine samples are collected using metabolic cages before induction of glomerulonephritis and at various time intervals after induction of nephritis for quantification of proteinuria. Sections of renal tissues are frozen for subsequent analysis by immunohistology. Morphology of renal injury is assessed in haematoxylin/eosin (H&E) and periodic acid-Schiff (PAS) stained renal tissue sections. Macrophage is detected by immunoperoxidase technique and using the monoclonal mouse antibody ED1 (Serotec, U C). The animal model was described in detail (Tam F W K, Smith J, Morel D, Karkar A M, Thompson E M, Cook H T, Pusey C D: Development of scarring and renal failure in a rat model of crescentic glomerulonephritis. Nephrol Dial Transplant 14:1658-1666, 1999).

[2] = test system: Contact hypersensitivity (CHS) response to 2,4-dinitrofluorobenzene (DNFB) in C57BL/6 mice; experiment: Contact hypersensitivity (CHS) response to DNFB, ear swelling; format: in vivo, mouse; settings: topical
Protocol: The Contact hypersensitivity (CHS) response to 2,4-dinitrofluorobenzene (DNFB) was determined using a modification of an earlier model described (see Ludwig, et al., 2010, Am J Pathol 176, 1339-1345). C57BL/6 mice were sensitized by treating the shaved mouse back skin with 75 μl of DNFB (Sigma, St. Louis, Mo.) solution (0.5% in acetone/olive oil, 4/1). […] the right ears of the mice were challenged with 20 μl 0.3% DNFB to cause a local inflammatory response. The vehicle (acetone/olive) oil was applied to the left ears as a control. The swelling response to DNFB, specified as the difference between the right and left ears, was measured 24 h after challenge using a micrometer (Mitutoyo Co., Tokyo, Japan). 8 mice were used per group.

[3] = single intraperitoneal injection of 0.25 mg/kg, 4 days after induction, day 8

Compound	suboptimal dexamethasone concentration ([1]; dose finding) [mg/kg]	reduction of crescent counts [1, 3]	reduction of glomerular macrophage infiltration [1, 3]	reduction of proteinuria ([1]; single intraperitoneal injection of 0.25 mg/kg, 4 days after induction, urine day 7 to day 8)	anti-inflammatory effects, ear thickness ([2]; 1% in DAC base cream ointment, without antibody)	ear swelling ([2]; suboptimal dose 1% in DAC base cream, in combination with 10 mg/kg isotype control antibody)
C[C@@H]1C[C@H]2[C@@H]3CCC4=CC(=O)C=C[C@]4(C)[C@@]3(F)[C@@H](O)C[C@]2(C)[C@@]1(O)C(=O)CO [Dexamethasone, reference compound]	0.025	approximately 25%	approximately 53%	approximately 50%	–	–
C[C@]12CCC(=O)C=C1CC[C@@H]1[C@@H]2[C@@H](O)C[C@@]2(C)[C@H]1CC[C@]2(O)C(=O)CO [hydrocortisone]	–	–	–	–	sub-optimal anti-inflammatory effects	did not reduce ear swelling
